From patent US9000159B2 (Glenmark Pharmaceuticals, S.A., priority 2009, dated 2015)

Target: T1, Human TRPA1 (Homo sapiens, UniProt O75762)
T1 construct: expressed in transfected cells; host or cells: CHO cells
Assay: 45Calcium uptake assay: inhibition of AITC induced cellular uptake of radioactive calcium
Assay type: cell-based
Conditions: AITC (30 μM) induced 45Ca uptake, Human TRPA1 expressing CHO cells; for inhibition at 1 µM: 1.0 μM test compound, read-out: Percentage inhibition at 1.0 μM; for inhibition at 10 µM: 10.0 μM test compound, read-out: Percentage inhibition at 10.0 μM; for IC50: read-out: Human IC50 value (range)
Text: The illustrative examples of the present invention are screened for TRPA1 activity according to a modified procedure described in (a) Tóth, A. et al., Life Sciences, 2003, 73, 487-498. (b) McNamara C, R. et al., Proc. Natl. Acad. Sci. U.S.A., 2007, 104, 13525-13530. The screening of the compounds can be carried out by other methods and procedures known to persons skilled in the art.
Screening for TRPA1 Antagonist Using the ^45Calcium Uptake Assay
The inhibition of TRPA1 receptor activation was measured as inhibition of allyl isothiocyanate (AITC) induced cellular uptake of radioactive calcium. Test compounds were dissolved in DMSO to prepare 10 mM stock solution and then diluted using plain medium with 0.1% BSA and 1.8 mM CaCl2 to get desired concentration. Final concentration of DMSO in the reaction was 0.5% (v/v). Human TRPA1 expressing CHO cells were grown in F-12 DMEM medium with 10% FBS, 1% penicillin-streptomycin solution, 400 μg/ml of G-418. Cells were seeded 24 h prior to the assay in 96 well plates so as to get ˜50,000 cells per well on the day of experiment. Cells were treated with test compounds for 10 min followed by addition of AITC at a final concentration of 30 μM and 5 μCi/ml ^45Ca^+2 for 3 min. Cells were washed and lysed using buffer containing 1% Triton X-100, 0.1% deoxycholate and 0.1% SDS. Radioactivity in the lysate was measured in Packard Top count after addition of liquid scintillant. Concentration response curves were plotted as a % of maximal response obtained in the absence of test antagonist. IC50 value was calculated from concentration response curve by nonlinear regression analysis using GraphPad PRISM software.

T1 sequence (O75762 whole entry): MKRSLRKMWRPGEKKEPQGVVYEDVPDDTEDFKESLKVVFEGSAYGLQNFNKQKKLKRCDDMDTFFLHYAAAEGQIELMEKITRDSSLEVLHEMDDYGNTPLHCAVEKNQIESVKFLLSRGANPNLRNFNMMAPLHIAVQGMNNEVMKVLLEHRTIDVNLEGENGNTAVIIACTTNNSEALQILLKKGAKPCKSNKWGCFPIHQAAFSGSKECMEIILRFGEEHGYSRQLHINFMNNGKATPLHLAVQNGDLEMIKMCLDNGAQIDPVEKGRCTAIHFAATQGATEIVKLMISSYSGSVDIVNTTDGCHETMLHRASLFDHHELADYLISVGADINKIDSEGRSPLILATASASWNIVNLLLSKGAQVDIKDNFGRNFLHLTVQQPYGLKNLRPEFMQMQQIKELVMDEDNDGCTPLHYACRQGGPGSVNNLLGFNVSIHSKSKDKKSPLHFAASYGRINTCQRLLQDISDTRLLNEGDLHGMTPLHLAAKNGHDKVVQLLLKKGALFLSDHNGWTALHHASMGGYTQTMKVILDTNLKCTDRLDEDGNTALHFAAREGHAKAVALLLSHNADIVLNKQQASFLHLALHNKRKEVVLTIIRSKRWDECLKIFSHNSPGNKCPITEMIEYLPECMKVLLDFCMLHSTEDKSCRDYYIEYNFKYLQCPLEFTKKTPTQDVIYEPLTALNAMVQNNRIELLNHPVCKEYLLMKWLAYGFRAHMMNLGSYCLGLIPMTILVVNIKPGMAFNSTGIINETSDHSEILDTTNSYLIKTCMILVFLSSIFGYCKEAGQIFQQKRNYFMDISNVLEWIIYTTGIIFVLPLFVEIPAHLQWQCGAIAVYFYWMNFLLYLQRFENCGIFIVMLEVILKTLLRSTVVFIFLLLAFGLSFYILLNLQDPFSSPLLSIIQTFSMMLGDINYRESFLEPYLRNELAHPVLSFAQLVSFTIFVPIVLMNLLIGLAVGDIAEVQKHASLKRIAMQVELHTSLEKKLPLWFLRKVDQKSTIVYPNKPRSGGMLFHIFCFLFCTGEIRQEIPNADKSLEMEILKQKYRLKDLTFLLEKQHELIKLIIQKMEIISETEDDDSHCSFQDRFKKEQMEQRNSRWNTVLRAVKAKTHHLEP

| inhibition at 1 µM | inhibition at 10 µM | IC50 | SMILES |
| --- | --- | --- | --- |
| 95.1% | 99.7% | < 50 nM | Cn1nc2c(c1CC(=O)Nc1nc(-c3ccc(F)c(C(F)(F)F)c3F)cs1)c(=O)n(C)c(=O)n2C [Example 63, N-{4-[2,4-Difluoro-3-(trifluoromethyl)phenyl]-1,3-thiazol-2-yl}-2-(2,5,7-trimethyl-4,6-dioxo-4,5,6,7-tetrahydro-2H-pyrazolo[3,4-d]pyrimidin-3-yl)acetamide] |
| 4.89% | 21.1% | – | CN(C)Cc1cn(CC(=O)Nc2nc(-c3cc(F)c(OCC(C)(C)C)c(F)c3)cs2)c2c(=O)n(C)c(=O)n(C)c12 [Example 39] |
| 94.4% | 98.8% | < 50 nM | Cn1c(=O)c2c(ccn2CC(=O)Nc2nc(-c3ccc(C(F)(F)F)c(F)c3)cs2)n(C)c1=O [Example 3, 2-(1,3-Dimethyl-2,4-dioxo-1,2,3,4-tetrahydro-5H-pyrrolo[3,2-d]pyrimidin-5-yl)-N-{4-[3-fluoro-4-(trifluoromethyl)phenyl]-1,3-thiazol-2-yl}acetamide] |
| 11.2% | 16.2% | – | Cn1c(=O)c2c(ccn2CC(=O)Nc2nc(-c3cc(F)c(OCc4ccc(C(F)(F)F)cc4)c(F)c3)cs2)n(C)c1=O [Example 21, 2-(1,3-Dimethyl-2,4-dioxo-1,2,3,4-tetrahydro-5H-pyrrolo[3,2-d]pyrimidin-5-yl)-N-{4-[3,5-difluoro-4-[4-(trifluoromethyl)benzyloxy]phenyl)-1,3-thiazol-2-yl}acetamide] |
| 91.3% | 99.4% | > 100 nM | Cn1c(=O)c2c(cnn2CC(=O)Nc2nc(-c3ccc(C(F)(F)F)c(F)c3)cs2)n(C)c1=O [Example 68, 2-(4,6-Dimethyl-5,7-dioxo-4,5,6,7-tetrahydro-1H-pyrazolo[4,3-d]pyrimidin-1-yl)-N-{4-[3-fluoro-4-(trifluoromethyl)phenyl]-1,3-thiazol-2-yl}acetamide] |
| 48.5% | 86.2% | – | CCN(CC)Cc1cn(CC(=O)Nc2nc(-c3ccc(C(F)(F)F)c(F)c3)cs2)c2c(=O)n(C)c(=O)n(C)c12 [Example 40, N-{4-[3-Fluoro-4-(trifluoromethyl)phenyl]-1,3-thiazol-2-yl}-2-{7-[(diethylamino)methyl]-1,3-dimethyl-2,4-dioxo-1,2,3,4-tetrahydro-5H-pyrrolo[3,2-d]pyrimidin-5-yl}acetamide] |
| 34.4% | 89.8% | – | Cn1c(=O)c2c(ccn2CC(=O)Nc2nc(-c3ccc(Cl)c(C(F)(F)F)c3)cs2)n(C)c1=O [Example 4, 2-(1,3-Dimethyl-2,4-dioxo-1,2,3,4-tetrahydro-5H-pyrrolo[3,2-d]pyrimidin-5-yl)-N-{4-[4-chloro-3-(trifluoromethyl)phenyl]-1,3-thiazol-2-yl}acetamide] |
| 94.6% | 99.2% | < 50 nM | Cn1nc2c(c1CC(=O)Nc1nc(-c3cc(F)cc(C(F)(F)F)c3)cs1)c(=O)n(C)c(=O)n2C [Example 58, N-{4-[3-Fluoro-5-(trifluoromethyl)phenyl]-1,3-thiazol-2-yl}-2-(2,5,7-trimethyl-4,6-dioxo-4,5,6,7-tetrahydro-2H-pyrazolo[3,4-d]pyrimidin-3-yl)acetamide] |
| 0% | 28.3% | – | Cc1cc2c(c(=O)n(C)c(=O)n2C)n1CC(=O)Nc1cc(-c2ccc(Br)cc2)on1 [Example 33, N-[5-(4-bromophenyl)isoxazol-3-yl]-2-(1,3,6-trimethyl-2,4-dioxo-1,2,3,4-tetrahydro-5H-pyrrolo[3,2-d]pyrimidin-5-yl)acetamide] |
| 89.3% | 96.6% | > 100 nM | Cn1nc2c(c1CC(=O)Nc1nc(-c3ccc(Cl)cc3)cs1)c(=O)n(C)c(=O)n2C [Example 46, N-[4-(4-Chlorophenyl)-1,3-thiazol-2-yl]-2-(2,5,7-trimethyl-4,6-dioxo-4,5,6,7-tetrahydro-2H-pyrazolo[3,4-d]pyrimidin-3-yl)acetamide] |

The next lines start with the molecule.

| SMILES | inhibition at 1 µM | inhibition at 10 µM | IC50 |
| --- | --- | --- | --- |
| CC(C)COc1c(Cl)cc(-c2csc(NC(=O)Cn3ncc4c3c(=O)n(C)c(=O)n4C)n2)cc1Cl [Example 75, N-[4-(3,5-Dichloro-4-isobutoxyphenyl)-1,3-thiazol-2-yl]-2-(4,6-dimethyl-5,7-dioxo-4,5,6,7-tetrahydro-1H-pyrazolo[4,3-d]pyrimidin-1-yl)acetamide] | 99.3% | 100% | < 50 nM |
| Cn1c(=O)c2c(ccn2CC(=O)Nc2nc(-c3cc(F)c(OCC(F)(F)F)c(F)c3)cs2)n(C)c1=O [Example 11, N-{4-[3,5-Difluoro-4-(2,2,2-trifluoroethoxy)phenyl]-1,3-thiazol-2-yl}-2-(1,3-dimethyl-2,4-dioxo-1,2,3,4-tetrahydro-5H-pyrrolo[3,2-d]pyrimidin-5-yl)acetamide] | 96.3% | 98.1% | < 50 nM |
| Cn1c(=O)c2c(ccn2CC(=O)Nc2nc(-c3cc(Cl)c(OCC(C)(C)C)c(Cl)c3)cs2)n(C)c1=O [Example 13, N-{4-[3,5-Dichloro-4-(2,2-dimethylpropoxy)phenyl]-1,3-thiazol-2-yl}-2-(1,3-dimethyl-2,4-dioxo-1,2,3,4-tetrahydro-5H-pyrrolo[3,2-d]pyrimidin-5-yl)acetamide] | 86.5% | 98.8% | 50 to 100 nM |
| Cn1nc2c(c1CC(=O)Nc1nc(-c3cccc(C(F)(F)F)c3)cs1)c(=O)n(C)c(=O)n2C [Example 48, N-{4-[3-(Trifluoromethyl)phenyl]-1,3-thiazol-2-yl}-2-(2,5,7-trimethyl-4,6-dioxo-4,5,6,7-tetrahydro-2H-pyrazolo[3,4-d]pyrimidin-3-yl)acetamide] | 92.8% | 97.5% | 50 to 100 nM |
| Cn1c(=O)c2c(ccn2CC(=O)Nc2nc(-c3cc(F)c(OC(F)F)c(F)c3)cs2)n(C)c1=O [Example 10, N-{4-[4-(Difluoromethoxy)-3,5-difluorophenyl]-1,3-thiazol-2-yl}-2-(1,3-dimethyl-2,4-dioxo-1,2,3,4-tetrahydro-5H-pyrrolo[3,2-d]pyrimidin-5-yl)acetamide] | 91% | 95.3% | 50 to 100 nM |
| Cn1nc2c(c1CC(=O)Nc1nc(-c3cccc(C(F)(F)F)c3F)cs1)c(=O)n(C)c(=O)n2C [Example 55, N-{4-[2-Fluoro-3-(trifluoromethyl)phenyl]-1,3-thiazol-2-yl}-2-(2,5,7-trimethyl-4,6-dioxo-4,5,6,7-tetrahydro-2H-pyrazolo[3,4-d]pyrimidin-3-yl)acetamide] | 92.2% | 99.2% | 50 to 100 nM |
| Cn1c(=O)c2c(ccn2CC(=O)Nc2nc(-c3cc(Cl)c(OCCC(F)(F)C(F)(F)F)c(Cl)c3)cs2)n(C)c1=O [Example 15, N-{4-[3,5-Dichloro-4-(3,3,4,4,4-pentafluorobutoxy)phenyl]-1,3-thiazol-2-yl}-2-(1,3-dimethyl-2,4-dioxo-1,2,3,4-tetrahydro-5H-pyrrolo[3,2-d]pyrimidin-5-yl)acetamide] | 76.5% | 92.5% | 50 to 100 nM |
| Cn1c(=O)c2c(cnn2CC(=O)Nc2nc(-c3ccc(OCC(C)(C)C)c(Cl)c3)cs2)n(C)c1=O [Example 70, N-{4-[3-Chloro-4-(2,2-dimethylpropoxy)phenyl]-1,3-thiazol-2-yl}-2-(4,6-dimethyl-5,7-dioxo-4,5,6,7-tetrahydro-1H-pyrazolo[4,3-d]pyrimidin-1-yl)acetamide] | 91.5% | 98.8% | < 50 nM |
| Cn1c(=O)c2c(CC(=O)Nc3nc(-c4ccc(F)c(C(F)(F)F)c4F)cs3)cn(C)c2n(C)c1=O [Example 43, N-{4-[2,4-Difluoro-3-(trifluoromethyl)phenyl]-1,3-thiazol-2-yl}-2-(1,3,7-trimethyl-2,4-dioxo-2,3,4,7-tetrahydro-1H-pyrrolo[2,3-d]pyrimidin-5-yl)acetamide] | 30.1% | 41.6% | – |
| Cc1nn(CC(=O)Nc2nc(-c3cc(Cl)c(OCC(C)(C)C)c(Cl)c3)cs2)c2c(=O)n(C)c(=O)n(C)c12 [Example 83, N-[4-(3,5-Dichloro-4-(2,2-dimethylpropoxy)phenyl)-1,3-thiazol-2-yl]-2-(3,4,6-trimethyl-5,7-dioxo-4,5,6,7-tetrahydro-1H-pyrazolo[4,3-d]pyrimidin-1-yl)acetamide] | 75.6% | 95% | < 50 nM |
| Cc1cn(CC(=O)Nc2nc(-c3ccc(C(F)(F)F)c(F)c3)cs2)c2c(=O)n(C)c(=O)n(C)c12 [Example 35, N-{4-[3-Fluoro-4-(trifluoromethyl)phenyl]-1,3-thiazol-2-yl}-2-(1,3,7-trimethyl-2,4-dioxo-1,2,3,4-tetrahydro-5H-pyrrolo[3,2-d]pyrimidin-5-yl)acetamide] | 64.7% | 96.8% | – |
